According to patent US20120077814A1, “SULFONAMIDE, SULFAMATE, AND SULFAMOTHIOATE DERIVATIVES” (priority 2010, published 2012):

Legend:
[1] = system: HCT-116 cell proliferation; experiment: Cell proliferation assay (HCT-116); format: cell-based; conditions: Homo sapiens; HCT-116 cells; read-out: Activity (range of inhibitory activity against HCT-116 cell proliferation, IC50)
Protocol: A panel of cancer cell lines is obtained from ATCC (Rockville, Md.). Cell cultures are maintained in Hyclone DMEM/F12 medium (Logan, Utah) supplemented with 10% fetal bovine serum and 15 mM HEPES buffer, final pH 7.2, at 37° C. with a 5% CO2 atmosphere. Cultures are maintained at sub-confluent densities.
For proliferation assays, cells are seeded into 96 well plates at 1,000-5,000 cells per well, depending on the cell line, and are incubated overnight. The following day, test compound, DMSO solution (negative control), or Actinomycin D (positive control) is added to the appropriate wells as 10× concentrated stocks prepared in phosphate buffered saline. The cell plates are then incubated for an additional 2-6 days, depending on the cell line, to allow proliferation to occur. To measure cell growth in adherent cultures, DNA amounts are measured in each well using the CyQuant DNA determination kit (Invitrogen, Carlsbad, Calif.) following the recommended protocol. Measurement of cell growth in suspension cultures is done by use of Celltiter Reagent (Promega, Madison, Wis.) at the end of treatment, following the recommended protocol. The percentage of cell growth is determined by comparing the cell growth in the presence of test compounds to the cells treated with DMSO vehicle (control, 100% growth) and cells treated with Actinomycin D ([…], 0% growth). […]

[2] = biological target: T1, recombinant human NAE enzyme (NEDD8 Activating Enzyme) (Homo sapiens, UniProt Q8TBC4); experiment: E1-activating enzyme assay, time-resolved fluorescence energy transfer (NAE); format: biochemical; conditions: 0.5 nM recombinant human NAE, 100 μM ATP; read-out: Activity (range of inhibitory activity on NAE, IC50)
T1 sequence (Q8TBC4 1-463): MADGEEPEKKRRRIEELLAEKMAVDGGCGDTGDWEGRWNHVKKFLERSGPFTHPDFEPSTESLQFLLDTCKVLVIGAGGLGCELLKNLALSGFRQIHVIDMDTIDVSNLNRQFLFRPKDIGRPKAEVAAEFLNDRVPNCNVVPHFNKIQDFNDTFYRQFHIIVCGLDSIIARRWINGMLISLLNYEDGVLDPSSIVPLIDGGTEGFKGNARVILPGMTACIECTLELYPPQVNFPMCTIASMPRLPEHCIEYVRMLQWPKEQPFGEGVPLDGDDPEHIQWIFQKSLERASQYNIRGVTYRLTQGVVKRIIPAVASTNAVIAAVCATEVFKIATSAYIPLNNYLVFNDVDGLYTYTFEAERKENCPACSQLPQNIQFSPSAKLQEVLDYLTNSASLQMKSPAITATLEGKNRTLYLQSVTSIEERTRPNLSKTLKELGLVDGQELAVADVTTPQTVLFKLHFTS
T1 sequence (Q13564 1-534 partner): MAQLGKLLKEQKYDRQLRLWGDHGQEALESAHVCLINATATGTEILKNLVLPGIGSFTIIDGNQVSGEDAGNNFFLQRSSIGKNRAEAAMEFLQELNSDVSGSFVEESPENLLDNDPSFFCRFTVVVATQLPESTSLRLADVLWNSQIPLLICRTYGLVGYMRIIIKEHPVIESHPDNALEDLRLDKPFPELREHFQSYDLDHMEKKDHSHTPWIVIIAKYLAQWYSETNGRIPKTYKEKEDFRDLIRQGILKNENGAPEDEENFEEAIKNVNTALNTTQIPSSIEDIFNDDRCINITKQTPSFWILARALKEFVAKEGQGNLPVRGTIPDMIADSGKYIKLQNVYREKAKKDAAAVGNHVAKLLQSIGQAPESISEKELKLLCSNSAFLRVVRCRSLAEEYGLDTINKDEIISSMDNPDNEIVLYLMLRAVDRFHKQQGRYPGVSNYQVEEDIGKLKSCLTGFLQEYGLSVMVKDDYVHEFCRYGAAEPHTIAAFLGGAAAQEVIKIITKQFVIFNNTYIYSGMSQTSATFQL
Protocol: A time-resolved fluorescence energy transfer assay format is used to measure the in vitro activity of NEDD8 Activating Enzyme (NAE). The enzymatic reaction is performed in a total volume of 50 μL, containing 50 mM HEPES, pH 7.5, 0.05% BSA, 5 mM MgCl2, 100 μM ATP, 10 nM Ubc12-GST, 75 nM NEDD8-Flag and 0.5 nM recombinant human NAE enzyme. The reaction mixture is incubated with and without compound inhibitor at 24° C. for 30 min in a 96 half-well plate. The reaction is then terminated with 25 μL of stop/detection buffer (0.1 M HEPES, pH 7.5, 0.05% Tween20, 20 mM EDTA, 410 mM KF, 81.8 ng/mL Europium-Cryptate-labelled monoclonal Flag-M2-specific antibody (CisBio International) and 8.125 μg/mL PHYCOLINK allophycocyanin (XL-APC)-labelled GST-specific antibody (Prozyme)). After incubation for 2 hours at 24° C., the plate is read on a Tecan Infinite M1000 instrument using a time-resolved fluorescence method. A similar assay protocol is used to measure other E1 enzymes. For the Sumo Activating Enzyme (SAE) assay everything is conducted as described for NAE except that Ubc12-GST and NEDD8-Flag are replaced with 10 nM Ubc9-GST and 125 nM Sumo-Flag respectively, and recombinant human SAE (0.6 nM) replaced NAE. The Ubiquitin Activating Enzyme (UAE) assay is performed as described for NAE except Ubc12-GST, NEDD8-Flag, and NAE are replaced with 5 nM Ubc2-GST, 125 nM UBB-Flag, and 1.5 nM UAE respectively.
Compounds of the disclosure are inhibitors of NAE. Several exemplary compounds useful in the methods of the disclosure are listed below.

| SMILES | IC50 [1] [µM] | IC50 [2] [µM] |
| --- | --- | --- |
| NS(=O)(=O)OC[C@H]1O[C@@H](c2ccc3c(N[C@H]4CCc5ccccc54)ncnn23)CC1=O [Compound 1, [(2R,5R)-5-[4-[[(1S)-indan-1-yl]amino]pyrrolo[2,1-f][1,2,4]triazin-7-yl]-3-oxo-tetrahydrofuran-2-yl]methyl sulfamate] | 5 to 50 | 5 to 50 |
| NS(=O)(=O)OC[C@H]1C[C@H](c2ccc3c(N[C@H]4CCc5ccccc54)ncnn23)C[C@@H]1OS(N)(=O)=O [Compound 19, [2-[(aminosulfonyl)oxy]-4-{4-[2,3-dihydro-1H-inden-1-ylamino]pyrrolo[2,1-f][1,2,4]triazin-7-yl}cyclopentyl]methyl sulfamate] | 5 to 50 | 5 to 50 |
| NS(=O)(=O)OC[C@H]1O[C@@H](c2csc3c(NCc4ccccc4)ncnc23)[C@H](O)[C@@H]1O [Compound 25, (5-(4-(benzylamino)thieno[3,2-d]pyrimidin-7-yl)-3,4-dihydroxytetrahydrofuran-2-yl)methyl sulfamate] | 0.5 to 5 |  |
| NS(=O)(=O)OC[C@H]1O[C@@H](c2csc3c(NCc4ccc(Cl)cc4)ncnc23)[C@H](O)[C@@H]1O [Compound 6, ((2R,3S,4R,5S)-5-(4-(4-chlorobenzylamino)thieno[3,2-d]pyrimidin-7-yl)-3,4-dihydroxytetrahydrofuran-2-yl)methyl sulfamate] | 0.5 to 5 | < 0.5 |
| Nc1ncnc2c([C@@H]3O[C@H](COS(N)(=O)=O)[C@@H](O)[C@H]3O)coc12 [Compound 11, ((2R,3S,4R,5S)-5-(4-aminofuro[3,2-d]pyrimidin-7-yl)-3,4-dihydroxytetrahydrofuran-2-yl)methyl sulfamate] | < 0.5 | 0.5 to 5 |
| Nc1ncnc2c([C@@H]3O[C@H](COS(N)(=O)=O)[C@@H](O)[C@H]3O)cnn12 [Compound 13, ((2R,3S,4R,5S)-5-(4-aminopyrazolo[1,5-a][1,3,5]triazin-8-yl)-3,4-dihydroxytetrahydrofuran-2-yl)methyl sulfamate] | 5 to 50 |  |
| Nc1ncnc2c([C@@H]3O[C@H](COS(N)(=O)=O)[C@@H](O)[C@H]3O)[nH]nc12 [Compound 3, [(2R,3S,4R,5S)-5-(7-amino-1H-pyrazolo[4,3-d]pyrimidin-3-yl)-3,4-dihydroxy-tetrahydrofuran-2-yl]methyl sulfamate] | 0.5 to 5 | 0.5 to 5 |
| Nc1ncnc2c([C@@H]3O[C@H](COS(N)(=O)=O)[C@@H](O)[C@H]3O)csc12 [Compound 4, [(2R,3S,4R,5S)-5-(4-aminothieno[3,2-d]pyrimidin-7-yl)-3,4-dihydroxy-tetrahydrofuran-2-yl]methyl sulfamate] | < 0.5 | < 0.5 |
| NS(=O)(=O)OC[C@H]1O[C@@H](c2csc3c(N[C@H]4CCc5ccccc54)ncnc23)C[C@@H]1O [Compound 10, ((2R,3S,5R)-5-(4-((S)-2,3-dihydro-1H-inden-1-ylamino)thieno[3,2-d]pyrimidin-7-yl)-3-hydroxytetrahydrofuran-2-yl)methyl sulfamate] | 0.5 to 5 | 0.5 to 5 |

More lines, now with the values ahead:

| IC50 [1] [µM] | IC50 [2] [µM] | SMILES |
| --- | --- | --- |
| 5 to 50 |  | NS(=O)(=O)OC[C@H]1O[C@@H](c2coc3c(NCc4ccc(Cl)cc4Cl)ncnc23)[C@H](O)[C@@H]1O [Compound 34, (5-(4-(2,4-dichlorobenzylamino)furo[3,2-d]pyrimidin-7-yl)-3,4-dihydroxytetrahydrofuran-2-yl)methyl sulfamate] |
|  | 0.5 to 5 | NS(=O)(=O)OC[C@H]1O[C@@H](c2csc3c(NCc4ccccc4Cl)ncnc23)[C@H](O)[C@@H]1O [Compound 30, (5-(4-(2-chlorobenzylamino)thieno[3,2-d]pyrimidin-7-yl)-3,4-dihydroxytetrahydrofuran-2-yl)methyl sulfamate] |
|  | 0.5 to 5 | NS(=O)(=O)OC[C@H]1O[C@@H](c2coc3c(NCc4ccc(Cl)c(C(F)(F)F)c4)ncnc23)[C@H](O)[C@@H]1O [Compound 35, (5-(4-(4-chloro-3-(trifluoromethyl)benzylamino)furo[3,2-d]pyrimidin-7-yl)-3,4-dihydroxytetrahydrofuran-2-yl)methyl sulfamate] |
| 5 to 50 |  | NS(=O)(=O)OC[C@H]1O[C@@H](c2csc3c(NCC4CC4)ncnc23)[C@H](O)[C@@H]1O [Compound 26, (5-(4-(cyclopropylmethylamino)thieno[3,2-d]pyrimidin-7-yl)-3,4-dihydroxytetrahydrofuran-2-yl)methyl sulfamate] |
| 5 to 50 |  | COCCNc1ncnc2c([C@@H]3O[C@H](COS(N)(=O)=O)[C@@H](O)[C@H]3O)csc12 [Compound 28, (3,4-dihydroxy-5-(4-(2-methoxyethylamino)thieno[3,2-d]pyrimidin-7-yl)tetrahydrofuran-2-yl)methyl sulfamate] |
|  | 0.5 to 5 | NS(=O)(=O)OC[C@H]1O[C@@H](c2csc3c(NCc4cccc(Cl)c4)ncnc23)[C@H](O)[C@@H]1O [Compound 37, (5-(4-(3-chlorobenzylamino)thieno[3,2-d]pyrimidin-7-yl)-3,4-dihydroxytetrahydrofuran-2-yl)methyl sulfamate] |
